“Also recorded” adds a separate entry of the source. Ends that are not written are not given here.
How the values were obtained:
[1] = test system: OVA-MMAF; experiment: Peptide ELISA binding experiment (Fc fusion peptides); conditions: antigens coated 1 µg/mL, peptide from 2000 nM (FIG. 34)
Protocol: The constructed Fc fusion peptide molecules PP-1A-#84 to #95 were used for identification of binding specificity to OVA-MMAF and OVA, to determine molecules with better specific binding activity to MMAE. […] Table 20. Amino acid sequence listing of PP-1A-#85 (peptide) to PP-1A-#94 (peptide) and PP-1A-#85 (Fc fusion peptide)
• (1) Antigen coating: MMAF conjugated protein and negative protein were coated onto a microplate using coating buffer at a concentration of 1 µg/mL, and the plate was placed at 4°C overnight for about 16 h. (2) Blocking: The plate coated with antigen was washed once with PBST using a plate washer, and blocked by adding Casein solution at 200 µL/well at room temperature for 1 h. (3) Primary antibody incubation: The plate was washed 3 times with PBST, and peptide samples with an initial concentration of 2000 nM diluted in a 5-fold gradient using Casein solution were added. The negative control was the Fc.uIgG1 molecule. Incubation was performed at room temperature for 2 h. (4) Secondary antibody incubation: The plate was washed 3 times with PBST, and secondary antibody Goat pAb to Hu IgG(HRP) (1:10000) (Abcam, Cat. Ab97225) diluted with Casein solution was added and incubated at room temperature for 1 h. (5) Color development: The plate was washed 6 times with PBST, 100 µL of TMB color development solution was added to each well, and color was developed for 2 to 10 min protected from light. (6) Termination: 100 µL of 2 M H2SO4 was added to each well to terminate the reaction. The OD450 value was read using a microplate reader, recorded, and saved. Finally, the data were analyzed using GraphPad software.

[2] = test system: BSA-MMAF; experiment: Peptide competitive ELISA; assay type: binding; conditions: peptide 2000 nM, truncated free MMAE or null-ADC from 1000 nM (FIG. 35)
Protocol: • (1) Antigen coating: BSA-MMAF was coated onto a microplate using coating buffer at a concentration of […], and placed at 4°C overnight for about 16 h. (2) Blocking: The microplate coated with antigen was washed once with PBST using a plate washer, and blocked by adding Casein solution at 200 µL/well at room temperature for 1 h. (3) Primary antibody incubation: The plate was washed 3 times with PBST, and a premixture of peptide sample diluted with Casein solution and truncated free MMAE/null-ADC was added. The final concentration of the peptide sample was 2000 nM. […] The positive control was molecule ABC3320 with a final concentration of 1.28 nM. Incubation was performed at room temperature for 2 h. (4) Secondary antibody incubation: The plate was washed 3 times with PBST, and secondary antibody Goat pAb to Hu IgG(HRP) (1:10000) diluted with Casein solution was added and incubated at room temperature for 1 h. (5) Color development: The plate was washed 6 times with PBST, 100 µL of TMB color development solution was added to each well, and color was developed for 2 to 10 min protected from light. (6) Termination: 100 µL of 2 M H2SO4 was added to each well to terminate the reaction. The OD450 value was read using a microplate reader, recorded, and saved. Finally, the data were analyzed using GraphPad software.

[3] = test system: OVA-DXD; experiment: Dot blot screening for DXD specific binding peptides; conditions: OVA or OVA-DXD 20 µg/mL spotted (FIG. 40)
Protocol: Sample preparation: 50 mL of bacterial liquid induced with IPTG overnight (16°C, 16 h) was collected by centrifugation at 5000 rpm for 5 min, and the supernatant was discarded. 7 mL of PBS was added to resuspend the bacterial pellet, and it was disrupted at 200 W for 5 min. It was centrifuged at 12,000 rpm for 20 min, and the supernatant was collected for later use. Spotting: A nylon membrane (Beyotime, CAT#FFN10) was cut to an appropriate size and marked with lines. 3 µL of antigen sample (OVA or OVA-DXD, 20 µg/mL) was spotted onto the membrane using a pipette. The consistency of the spotted volume and the spacing between spots were carefully dealt with to avoid mutual interference between samples. After spotting, the membrane was allowed to dry naturally at room temperature. Blocking: The dried membrane was placed in a blocking solution (5% skim milk) and blocked on a shaker at room temperature for 1 to 2 h. The purpose of blocking was to prevent non-specific binding and reduce background signals. Washing: After incubation of the primary antibody, the membrane was thoroughly washed with washing buffer (PBST) 3 times for 5 min each time to remove unbound primary antibody. Secondary antibody incubation: The membrane was placed in a solution containing appropriately diluted secondary antibody and incubated at room temperature for 1 to 2 h. The secondary antibody was an antibody against the primary antibody, usually carrying a detectable label such as horseradish peroxidase (HRP) or alkaline phosphatase (AP). Washing: The membrane was washed again with washing buffer to remove unbound secondary antibody, 3 times for 5 min each time. Color development: An appropriate amount of ECL color development substrate solution was applied to the membrane, and the reaction was performed at room temperature protected from light. The color development was observed using a gel imager, and the membrane was photographed and recorded. Through observing the presence or absence and the color depth of the spots, the target protein in the sample can be qualitatively or semi-quantitatively analyzed.

[4] = test system: NCI-H292 tumor cells; experiment: Inhibitory effect of DXD-binding peptides on DXD cytotoxicity; assay type: cell-based; conditions: DXD 1 ng/mL, peptides from 100 µg/mL, 3 days (FIG. 41)
Protocol: NCI-H292 tumor cells were used to detect the inhibitory effect of DXD-binding peptides on DXD cytotoxicity.
NCI-H292 cells were digested, counted, and plated at 5E3 cells/well, with 60 µL per well, and allowed to adhere in a 37°C incubator. Peptide molecules and nonsense control antibody Null IgG were 2-fold diluted for 7 gradients starting at a concentration of 100 µg/mL The DXD concentration was fixed to 1 ng/mL. The test substances were incubated with DXD at room temperature for 2 h. The incubated samples were added into the 96-well plate at 60 µL/well and cultured in a 37°C incubator for 3 days. 100 µL of Cell Counting-Lite 2.0 Reagent was added to each well, and the plate was shaken on a shaker for 10 min. The fluorescence signal was read using a microplate reader.

[5] = target: Nectin-4 (UniProt Q96NY8); experiment: binding assay read as OD450; method not described
Nectin-4, sequence (Q96NY8 32-349 limits assumed): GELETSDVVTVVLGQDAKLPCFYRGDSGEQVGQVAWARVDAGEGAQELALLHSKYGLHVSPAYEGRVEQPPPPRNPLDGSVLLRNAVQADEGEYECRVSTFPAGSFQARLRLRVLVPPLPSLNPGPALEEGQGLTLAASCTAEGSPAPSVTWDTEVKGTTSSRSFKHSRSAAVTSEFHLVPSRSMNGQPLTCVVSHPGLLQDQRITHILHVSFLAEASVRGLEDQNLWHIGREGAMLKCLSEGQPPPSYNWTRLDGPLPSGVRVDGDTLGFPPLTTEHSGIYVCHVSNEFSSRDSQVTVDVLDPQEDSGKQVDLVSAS

Substance | specific binding to OVA-MMAF and OVA [1] | specific binding to DXD (dot blot) [3] | other results
ACDESHGVPHTSGMC [PP-1A-#85] | good binding activity to OVA-MMAF and did not bind to OVA | – | competitive binding of free MMAE [2]: blocked by truncated free MMAE, but not blocked by null-ADC
ACGSLSWRNCGSYRC [PP-1A-#417] | – | capable of specifically binding to DXD | cytoprotective effect [4]: exhibited a cytoprotective effect
ACHWNAKADYGSFVC (cysteine pairing not given here; also: Fc fusion) [PP-1A-#91] | specific binding to OVA-MMAF, but the binding activity was relatively weak | – | –
ACLACWTSRSC [PP-1A-#414] | – | capable of specifically binding to DXD | cytoprotective effect [4]: exhibited a cytoprotective effect; also recorded: had the best activity
ACLPNSLGPSAMSSC [PP-1A-#86] | good binding activity to OVA-MMAF and did not bind to OVA | – | –
ACLRNSPRKQC (cysteine pairing not given here; also: Fc fusion) [PP-1A-#90] | specific binding to OVA-MMAF, but the binding activity was relatively weak | – | –
ACLSPWLFFWC [PP-1A-#415] | – | capable of specifically binding to DXD | cytoprotective effect [4]: exhibited a cytoprotective effect
ACRLTGPDWLHTQRC (cysteine pairing not given here; also: Fc fusion) [PP-1A-#88] | specific binding to OVA-MMAF, but the binding activity was relatively weak | – | –
ACSQCVLLPPPQSVC [PP-1A-#431] | – | capable of specifically binding to DXD | –
ACTGCSRTHSPRSRC (cysteine pairing not given here; also: Fc fusion) [PP-1A-#92] | specific binding to OVA-MMAF, but the binding activity was relatively weak | – | –
ACTPALRSLAC (cysteine pairing not given here; also: Fc fusion) [PP-1A-#89] | good binding activity to OVA-MMAF and did not bind to OVA | – | –
ACVLSPHPQAC [PP-1A-#93] | good binding activity to OVA-MMAF and did not bind to OVA | – | competitive binding of free MMAE [2]: blocked by truncated free MMAE, but not blocked by null-ADC
ACWTLWLPLLPLGSC [PP-1A-#428] | – | capable of specifically binding to DXD | –
ACYPFGNPRGVRPSC [PP-1A-#426] | – | capable of specifically binding to DXD | –
AHNVEILPPFDYTLS [PP-1A-#358] | – | capable of specifically binding to DXD | –
APPTFPVSTSVVISR [PP-1A-#367] | – | capable of specifically binding to DXD | –
Enfortumab vedotin (in-house) (antibody) | – | – | Top OD450 [5]: 1.23 OD450
ILTTVNVVPNTIHVR [PP-1A-#340] | – | capable of specifically binding to DXD | cytoprotective effect [4]: exhibited a cytoprotective effect
LTVAMITTSRITTSN [PP-1A-#362] | – | capable of specifically binding to DXD | –
VALTWYYPIYLFATR [PP-1A-#330] | – | capable of specifically binding to DXD | –
hIgG1 (antibody) | – | – | Top OD450 [5]: 0 OD450

From EP4725508A1, “LIGAND-DRUG CONJUGATE HAVING FREE PAYLOAD RECOVERY UNIT” (RemeGen Co., Ltd., priority 2024, dated 2025)
